Patent US11173174B2, “DNMT inhibitor as solid tumor therapeutic drug” (OHARA PHARMACEUTICAL CO., LTD., priority 2017, dated 2021)

How the values were obtained:
[1] = test system: DNA methyltransferase (DNMT); test: Screening system for DNMT inhibitory activity (secretory luciferase reporter in HML58-3 cells); type: cell-based; conditions: 10 μM of sample, cultured for 4 days, cell supernatant on day 5, HML58-3 cells
Text: The screening system for assessment of DNMT inhibitory activity used for 5′-position dibenzyl monophosphate derivatives of 5-azacytidine and its 2′-deoxy form is the evaluation system which we have developed recently (Epigenetics, 2016, Dec 9:0: Establishment of a high-throughput detection system for DNA demethylating agents, E. Okochi-Takada, N. Hattori et al.). It is a simple screening system for assessment of DNMT inhibitory activity which uses genetically modified colorectal cancer cells, wherein […] luciferase can be expressed when 5-position methylation of cytosine ring in expressed gene promoter region is inhibited by inhibiting DNA methyltransferase (DNMT).
The screening system for assessment of DNMT inhibitory activity used for 5′-position dibenzyl monophosphate derivatives of 5-azacytidine and its 2′-deoxy form is the evaluation system which we have developed recently (Epigenetics, 2016, Dec 9:0: Establishment of a high-throughput detection system for DNA demethylating agents, E. Okochi-Takada, N.
(§1) Hattori et al.). In the evaluation system, a vector in which a secretory luciferase gene was ligated in the downstream of the endogenous promoter CpG island region was introduced into colon cancer cells. When inhibitions of DNA methyltransferase (DNMT) or other DNA methylation maintenance mechanism occur, C-methylation of the promoter CpG island decreases and secretory luciferase is expressed. Since the luciferase is secretory type, it is a screening system for DNMT inhibitory activity by which the assessment can be conducted easily by collecting cell supernatant and adding the substrate of luciferin. That is, on the day before the sample addition, colon cancer cells HML58-3 that had been genetically modified were seeded in a 96-well cell culture plate. 10 μM of each sample was added to each of them, and cultured for 4 days. On day 5, the cell supernatant was collected and luciferase activity was determined. In addition, cell account for each sample was determined according to WST-8 method.

[2] = Distribution coefficient log P (n-octanol/PBS); type: physicochemical
Text: The separation systems of silica gel column, separation yields, data obtained from instrumental analysis and distribution coefficients of the compounds (A) to (E) which are 5′-position dibenzyl monophosphates of 5-azacytidines synthesized according to the above synthetic methods A or B are shown as below.

[3] = test system: colon cancer cells HML58-3; test: Cell count by WST-8 method (cytotoxicity); type: cell-based; conditions: 10 μM of sample, cultured for 4 days, HML58-3 cells
Text: as §1

[4] = Body weight / safety in HCT116 cell-transplanted mouse model; type: in vivo, nude mice; conditions: intraperitoneal, twice a week, 6 times in total; 5.5, 11 and 22 mg/kg; observed until 28th day
Description: (§2) In vivo assessment In order to investigate the antitumor activity of 5′-position dibenzyl monophosphate derivatives of 5-azacytidine and its 2′-deoxy form, a HCT116 cell-transplanted mouse model derived from human colon cancer was used. After nurturing nude mice (female, 5 weeks old), 5×10^6 cells were transplanted subcutaneously into right flank. From the grouping date, samples in various concentrations (DMSO solution) were administered intraperitoneally for 6 times in total, at a frequency of twice a week. The observation was performed until the 28th day after grouping, during which body weight and tumor diameter were measured at a frequency of once a week.

[5] = test system: HCT116 cell (human colon cancer); test: Antitumor activity in HCT116 cell-transplanted mouse model; type: in vivo, nude mice; conditions: intraperitoneal, twice a week, 6 times in total; 5.5, 11 and 22 mg/kg; observed until 28th day; vs vehicle (DMSO)
Description: as §2

| Substance | Luciferase activity (DNMT inhibition) [1] | Distribution coefficient log P [2] | Cytotoxicity (cell count, WST-8 method) [3] | Safety / change in body weight [4] | Antitumor activity (tumor volume) [5] |
| --- | --- | --- | --- | --- | --- |
| O,O′-Dibenzyl 5-aza-2′-deoxycytidylate [Compound (B)] | very strong luciferase activity | 1.15 | low |  |  |
| O,O′-Di(4-fluoro)benzyl 5-aza-2′-deoxycytidylate [Compound (D)] | very strong luciferase activity | 1.40 | low | highly safe | dose-dependent antitumor activity |
| O,O′-Dibenzyl 5-azacytidylate [Compound (A)] |  | 0.83 |  |  |  |
| O,O′-Di(4-chloro)benzyl 5-aza-2′-deoxycytidylate [Compound (E)] | very strong luciferase activity | 2.44 | low |  |  |
| O,O′-Di(4-methyl)benzyl 5-aza-2′-deoxycytidylate [Compound (C)] | very strong luciferase activity |  | low |  |  |
